Reference: article doi:10.1101/2023.03.24.534094v2 (biorxiv, 2023)
Read-outs that look alike come from different tables or passages of the source. Each block holds one compound with its values, some of them ahead of it.

Columns and labels:
Experiment in all cases: biochemical
ULK3 = molecular target: T1, ULK3 (Homo sapiens, UniProt Q6PHR2)
T1 sequence (Q6PHR2 1-472): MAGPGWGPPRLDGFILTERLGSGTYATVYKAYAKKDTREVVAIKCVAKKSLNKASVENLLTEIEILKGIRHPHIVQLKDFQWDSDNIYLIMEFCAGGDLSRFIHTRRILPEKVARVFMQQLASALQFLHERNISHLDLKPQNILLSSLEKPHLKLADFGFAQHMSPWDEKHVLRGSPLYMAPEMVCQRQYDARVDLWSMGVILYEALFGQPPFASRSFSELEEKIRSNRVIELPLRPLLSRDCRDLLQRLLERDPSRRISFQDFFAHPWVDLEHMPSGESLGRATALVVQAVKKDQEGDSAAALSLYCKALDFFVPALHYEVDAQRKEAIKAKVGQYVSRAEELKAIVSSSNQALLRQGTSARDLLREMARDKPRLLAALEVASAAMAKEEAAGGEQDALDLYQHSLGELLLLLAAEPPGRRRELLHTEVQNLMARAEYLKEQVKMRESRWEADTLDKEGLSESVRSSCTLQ

DYRK1A = DYRK1A (Homo sapiens, UniProt Q13627)
FECH = molecular target: T2, FECH (Homo sapiens, UniProt P22830)
T2 sequence (P22830 1-423): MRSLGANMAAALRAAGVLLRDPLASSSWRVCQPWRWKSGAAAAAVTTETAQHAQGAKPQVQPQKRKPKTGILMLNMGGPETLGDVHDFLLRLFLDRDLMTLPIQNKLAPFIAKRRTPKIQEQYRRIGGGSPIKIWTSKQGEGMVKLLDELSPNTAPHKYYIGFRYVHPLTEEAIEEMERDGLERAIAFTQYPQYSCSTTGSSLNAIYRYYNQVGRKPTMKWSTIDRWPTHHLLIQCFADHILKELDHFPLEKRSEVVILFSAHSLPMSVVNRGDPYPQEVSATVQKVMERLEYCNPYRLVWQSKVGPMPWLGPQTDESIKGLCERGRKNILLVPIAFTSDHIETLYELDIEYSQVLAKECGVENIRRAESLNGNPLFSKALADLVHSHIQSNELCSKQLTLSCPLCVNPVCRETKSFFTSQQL

NEK1 = molecular target: T3, NEK1 (Homo sapiens, UniProt Q96PY6)
T3 sequence (Q96PY6 1-1258): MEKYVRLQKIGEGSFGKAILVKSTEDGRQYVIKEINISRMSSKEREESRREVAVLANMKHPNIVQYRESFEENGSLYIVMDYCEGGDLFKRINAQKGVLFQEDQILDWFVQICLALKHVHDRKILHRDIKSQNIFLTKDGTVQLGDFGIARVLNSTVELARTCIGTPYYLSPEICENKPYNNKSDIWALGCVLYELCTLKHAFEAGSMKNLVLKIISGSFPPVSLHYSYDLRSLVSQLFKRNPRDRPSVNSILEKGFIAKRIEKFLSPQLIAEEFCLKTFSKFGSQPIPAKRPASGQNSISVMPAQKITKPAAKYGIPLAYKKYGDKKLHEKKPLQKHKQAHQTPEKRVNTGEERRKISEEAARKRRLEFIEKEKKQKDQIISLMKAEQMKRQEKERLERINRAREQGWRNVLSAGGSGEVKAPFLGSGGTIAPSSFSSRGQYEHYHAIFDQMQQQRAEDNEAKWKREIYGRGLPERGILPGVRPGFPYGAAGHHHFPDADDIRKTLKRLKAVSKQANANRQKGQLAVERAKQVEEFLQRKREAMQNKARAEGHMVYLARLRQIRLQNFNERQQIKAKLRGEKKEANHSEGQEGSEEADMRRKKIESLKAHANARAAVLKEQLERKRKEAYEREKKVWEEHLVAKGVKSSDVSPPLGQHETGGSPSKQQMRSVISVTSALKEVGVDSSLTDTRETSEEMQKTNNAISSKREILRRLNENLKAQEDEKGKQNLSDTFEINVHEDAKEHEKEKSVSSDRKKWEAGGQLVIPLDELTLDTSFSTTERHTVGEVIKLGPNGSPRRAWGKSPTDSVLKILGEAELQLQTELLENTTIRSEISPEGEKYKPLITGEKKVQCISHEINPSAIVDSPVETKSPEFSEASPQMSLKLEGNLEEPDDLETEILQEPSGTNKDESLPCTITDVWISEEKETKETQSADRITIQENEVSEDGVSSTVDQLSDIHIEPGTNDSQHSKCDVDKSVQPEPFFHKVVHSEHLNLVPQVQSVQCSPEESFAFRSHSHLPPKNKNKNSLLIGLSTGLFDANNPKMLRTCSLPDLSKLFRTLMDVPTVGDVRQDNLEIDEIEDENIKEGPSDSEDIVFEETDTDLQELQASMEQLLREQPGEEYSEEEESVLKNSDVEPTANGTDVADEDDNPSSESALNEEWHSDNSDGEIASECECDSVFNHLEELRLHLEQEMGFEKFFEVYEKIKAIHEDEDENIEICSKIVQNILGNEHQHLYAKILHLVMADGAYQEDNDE

ΔTm at 10 µM (ULK3; read-out: dTm 7): 0.6 °C
ΔTm at 10 µM (DYRK1A; read-out: dTm 7): -0.6 °C
ΔTm at 10 µM (FECH; read-out: dTm 7): -1.1 °C
ΔTm at 10 µM (NEK1; read-out: dTm 7): 0.1 °C
SMILES: CNc1ncc2cc(-c3cc(Br)ccc3Cl)c(=O)n(C[C@H]3OC[C@H](N)CO3)c2n1 [compound 7, 8-(((2r,5r)-5-Amino-1,3-dioxan-2-yl)methyl)-6-(5-bromo-2-chlorophenyl)-2-(methylamino)pyrido[2,3-d]pyrimidin-7(8H)-one]

dTm G-5555 (2) (ULK3; 10 µM, binder): 8.0 °C
dTm G-5555 (2) (DYRK1A; 10 µM, binder): -1.0 °C
dTm G-5555 (2) (NEK1; 10 µM, binder): -2.2 °C
SMILES: CNc1ncc2cc(-c3ccc(-c4cccc(C)n4)cc3Cl)c(=O)n(CC3OCC(N)CO3)c2n1 (stereo not drawn) [compound 2, G-5555]

ΔTm at 10 µM (DYRK1A; read-out: dTm 6): 0 °C
ΔTm at 10 µM (FECH; read-out: dTm 6): 0.2 °C
ΔTm at 10 µM (NEK1; read-out: dTm 6): -0.3 °C
SMILES: CNc1ncc2cc(-c3cc(Br)ccc3Cl)c(=O)n(CCCCN)c2n1 [compound 6, 8-(4-Aminobutyl)-6-(5-bromo-2-chlorophenyl)-2-(methylamino)pyrido[2,3-d]pyrimidin-7(8H)-one]

ΔTm at 10 µM (ULK3; read-out: dTm MR22 (5)): 1.9 °C
ΔTm at 10 µM (DYRK1A; read-out: dTm MR22 (5)): 0 °C
ΔTm at 10 µM (FECH; read-out: dTm MR22 (5)): 0.3 °C
ΔTm at 10 µM (NEK1; read-out: dTm MR22 (5)): 0 °C
SMILES: CNc1ncc2cc(-c3cc(F)ccc3F)c(=O)n(CCCCN)c2n1 [compound 5, 8-(4-Aminobutyl)-6-(2,5-difluorophenyl)-2-(methylamino)pyrido[2,3-d]pyrimidin-7(8H)-one]

ΔTm at 10 µM (ULK3; read-out: dTm MR21 (4)): 2.4 °C
ΔTm at 10 µM (DYRK1A; read-out: dTm MR21 (4)): 1.4 °C
ΔTm at 10 µM (FECH; read-out: dTm MR21 (4)): -1.1 °C
ΔTm at 10 µM (NEK1; read-out: dTm MR21 (4)): 0.1 °C
SMILES: CNc1ncc2cc(-c3ccccc3Cl)c(=O)n(CCCCN)c2n1 [compound 4, 8-(4-Aminobutyl)-6-(2-chlorophenyl)-2-(methylamino)pyrido[2,3-d]pyrimidin-7(8H)-one]
